{"source": "paper PMC7497403", "about": "“Development of Potent PfCLK3 Inhibitors Based on TCMDC-135051 as a New Class of Antimalarials” (Journal of Medicinal Chemistry, 2020)", "assay_in_all_cases": "Kinase screen", "type_in_all_cases": "biochemical", "key": {"MKK6": {"molecular_target": "MKK6 (Homo sapiens, UniProt P52564)", "from_the_text": "(§1) With verapamil used as a positive control.\n(§2) V. Distribution coefficient (LogD7.4)"}, "CK1γ2": {"molecular_target": "CK1γ2 (Homo sapiens, UniProt P78368)", "from_the_text": "as §1, §2"}, "TIE2": {"molecular_target": "TIE2 (Homo sapiens, UniProt Q02763)", "from_the_text": "as §1, §2"}, "PKA": {"molecular_target": "PKA (Homo sapiens, UniProt P17612)", "from_the_text": "as §1, §2"}, "PAK2": {"molecular_target": "PAK2 (Homo sapiens, UniProt Q13177)", "from_the_text": "as §1, §2"}, "MELK": {"molecular_target": "MELK (Homo sapiens, UniProt Q14680)", "from_the_text": "as §1, §2"}, "MARK1": {"molecular_target": "MARK1 (Homo sapiens, UniProt Q9P0L2)", "from_the_text": "as §1, §2"}, "DDR2": {"molecular_target": "DDR2 (Homo sapiens, UniProt Q16832)", "sequence (Q16832 22-855)": "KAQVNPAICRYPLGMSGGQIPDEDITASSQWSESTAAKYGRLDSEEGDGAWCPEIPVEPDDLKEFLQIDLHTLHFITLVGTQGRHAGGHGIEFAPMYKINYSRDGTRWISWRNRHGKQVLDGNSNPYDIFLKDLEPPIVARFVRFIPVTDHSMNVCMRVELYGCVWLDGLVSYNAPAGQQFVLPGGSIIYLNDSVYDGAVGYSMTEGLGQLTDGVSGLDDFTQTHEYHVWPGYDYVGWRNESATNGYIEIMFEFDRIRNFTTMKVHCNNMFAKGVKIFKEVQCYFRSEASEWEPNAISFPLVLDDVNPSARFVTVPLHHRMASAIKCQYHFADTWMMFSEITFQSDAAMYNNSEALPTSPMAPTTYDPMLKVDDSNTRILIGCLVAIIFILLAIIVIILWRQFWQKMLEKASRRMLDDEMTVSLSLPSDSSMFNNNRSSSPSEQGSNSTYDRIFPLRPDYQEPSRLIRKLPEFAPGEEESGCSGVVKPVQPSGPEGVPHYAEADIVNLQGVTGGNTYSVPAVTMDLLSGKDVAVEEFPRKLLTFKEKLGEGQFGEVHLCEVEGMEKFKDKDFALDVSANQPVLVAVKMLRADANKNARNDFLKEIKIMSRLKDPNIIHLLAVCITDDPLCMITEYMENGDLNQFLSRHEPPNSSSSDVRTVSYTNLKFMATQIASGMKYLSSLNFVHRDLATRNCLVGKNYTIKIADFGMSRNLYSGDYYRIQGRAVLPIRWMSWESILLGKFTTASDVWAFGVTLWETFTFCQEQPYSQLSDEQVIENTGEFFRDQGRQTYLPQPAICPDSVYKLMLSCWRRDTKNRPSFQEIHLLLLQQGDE", "from_the_text": "as §1, §2"}, "MKK1": {"molecular_target": "MKK1 (Homo sapiens, UniProt Q02750)", "from_the_text": "as §1, §2"}, "MLK3": {"molecular_target": "MLK3 (Homo sapiens, UniProt Q16584)", "from_the_text": "as §1, §2"}, "PIM2": {"molecular_target": "PIM2 (Homo sapiens, UniProt Q9P1W9)", "from_the_text": "as §1, §2"}, "PAK4": {"molecular_target": "PAK4 (Homo sapiens, UniProt O96013)", "from_the_text": "as §1, §2"}, "EIF2AK3": {"molecular_target": "EIF2AK3 (Homo sapiens, UniProt Q9NZJ5)", "from_the_text": "as §1, §2"}, "EPH-A4": {"molecular_target": "EPH-A4 (Homo sapiens, UniProt P54764)", "from_the_text": "as §1, §2"}, "MKK2": {"molecular_target": "MKK2 (Homo sapiens, UniProt P36507)", "from_the_text": "as §1, §2"}, "MAPKAP-K3": {"molecular_target": "MAPKAP-K3 (Homo sapiens, UniProt Q16644)", "sequence (Q16644 whole entry)": "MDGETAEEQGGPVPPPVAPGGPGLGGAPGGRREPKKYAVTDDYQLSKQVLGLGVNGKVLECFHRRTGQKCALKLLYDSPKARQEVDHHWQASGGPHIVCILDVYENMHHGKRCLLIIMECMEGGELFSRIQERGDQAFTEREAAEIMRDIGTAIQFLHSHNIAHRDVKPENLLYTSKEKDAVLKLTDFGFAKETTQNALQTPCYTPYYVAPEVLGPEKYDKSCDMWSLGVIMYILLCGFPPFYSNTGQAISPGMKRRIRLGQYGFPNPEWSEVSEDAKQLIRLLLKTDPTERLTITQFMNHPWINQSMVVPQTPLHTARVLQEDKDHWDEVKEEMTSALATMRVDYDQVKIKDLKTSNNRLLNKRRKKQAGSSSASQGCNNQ", "from_the_text": "as §1, §2"}, "RIPK2": {"molecular_target": "RIPK2 (Homo sapiens, UniProt O43353)", "sequence (O43353 whole entry)": "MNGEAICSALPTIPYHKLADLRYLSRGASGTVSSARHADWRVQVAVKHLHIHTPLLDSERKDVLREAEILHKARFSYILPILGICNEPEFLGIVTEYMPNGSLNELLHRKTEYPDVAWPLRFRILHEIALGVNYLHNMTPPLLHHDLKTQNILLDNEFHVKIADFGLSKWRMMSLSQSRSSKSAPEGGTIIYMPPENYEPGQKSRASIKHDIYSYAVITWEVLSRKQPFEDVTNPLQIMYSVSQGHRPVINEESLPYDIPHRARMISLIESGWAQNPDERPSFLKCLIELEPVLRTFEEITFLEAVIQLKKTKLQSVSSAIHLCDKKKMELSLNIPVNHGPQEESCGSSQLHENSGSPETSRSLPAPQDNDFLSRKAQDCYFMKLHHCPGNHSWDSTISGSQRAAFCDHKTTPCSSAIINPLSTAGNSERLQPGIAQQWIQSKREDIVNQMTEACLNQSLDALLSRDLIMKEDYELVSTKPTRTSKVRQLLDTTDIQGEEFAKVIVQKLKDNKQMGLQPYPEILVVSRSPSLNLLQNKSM", "from_the_text": "as §1, §2"}, "MINK1": {"molecular_target": "MINK1 (Homo sapiens, UniProt Q8N4C8)", "from_the_text": "as §1, §2"}, "p38g MAPK": {"molecular_target": "p38g MAPK (Homo sapiens, UniProt P53778)", "from_the_text": "as §1, §2"}, "BRSK1": {"molecular_target": "BRSK1 (Homo sapiens, UniProt Q8TDC3)", "from_the_text": "as §1, §2"}, "EPH-B4": {"molecular_target": "EPH-B4 (Homo sapiens, UniProt P54760)", "from_the_text": "as §1, §2"}, "TBK1": {"molecular_target": "TBK1 (Homo sapiens, UniProt Q9UHD2)", "from_the_text": "as §1, §2"}, "PKCa": {"molecular_target": "PKCa (Homo sapiens, UniProt P17252)", "from_the_text": "as §1, §2"}, "IRR": {"molecular_target": "IRR (Homo sapiens, UniProt P14616)", "from_the_text": "as §1, §2"}, "PKBb": {"molecular_target": "PKBb (Homo sapiens, UniProt P31751)", "from_the_text": "as §1, §2"}, "BRSK2": {"molecular_target": "BRSK2 (Homo sapiens, UniProt Q8IWQ3)", "from_the_text": "as §1, §2"}, "CSK": {"molecular_target": "CSK (Homo sapiens, UniProt P41240)", "from_the_text": "as §1, §2"}, "MAP4K3": {"molecular_target": "MAP4K3 (Homo sapiens, UniProt Q8IVH8)", "from_the_text": "as §1, §2"}, "p38d MAPK": {"molecular_target": "p38d MAPK (Homo sapiens, UniProt O15264)", "from_the_text": "as §1, §2"}, "CAMK1": {"molecular_target": "CAMK1 (Homo sapiens, UniProt Q14012)", "from_the_text": "as §1, §2"}, "HIPK2": {"molecular_target": "HIPK2 (Homo sapiens, UniProt Q9H2X6)", "from_the_text": "as §1, §2"}, "MARK4": {"molecular_target": "MARK4 (Homo sapiens, UniProt Q96L34)", "from_the_text": "as §1, §2"}, "PDK1": {"molecular_target": "PDK1 (Homo sapiens, UniProt O15530)", "sequence (O15530 whole entry)": "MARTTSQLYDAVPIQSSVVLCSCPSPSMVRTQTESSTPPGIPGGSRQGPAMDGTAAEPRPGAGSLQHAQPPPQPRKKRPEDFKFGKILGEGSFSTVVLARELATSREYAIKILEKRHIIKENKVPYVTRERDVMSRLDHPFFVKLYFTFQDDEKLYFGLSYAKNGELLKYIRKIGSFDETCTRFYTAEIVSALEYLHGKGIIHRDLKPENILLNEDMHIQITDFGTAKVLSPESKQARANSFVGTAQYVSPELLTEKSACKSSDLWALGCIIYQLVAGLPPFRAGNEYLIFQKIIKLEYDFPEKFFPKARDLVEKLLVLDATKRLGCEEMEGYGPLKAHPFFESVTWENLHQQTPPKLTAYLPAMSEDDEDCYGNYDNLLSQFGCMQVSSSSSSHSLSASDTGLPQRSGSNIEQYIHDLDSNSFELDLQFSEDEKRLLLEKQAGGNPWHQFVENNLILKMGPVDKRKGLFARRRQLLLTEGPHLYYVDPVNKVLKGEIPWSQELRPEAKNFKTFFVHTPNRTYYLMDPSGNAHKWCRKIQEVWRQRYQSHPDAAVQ", "from_the_text": "as §1, §2"}, "ASK1": {"molecular_target": "ASK1 (Homo sapiens, UniProt Q99683)", "sequence (Q99683 whole entry)": "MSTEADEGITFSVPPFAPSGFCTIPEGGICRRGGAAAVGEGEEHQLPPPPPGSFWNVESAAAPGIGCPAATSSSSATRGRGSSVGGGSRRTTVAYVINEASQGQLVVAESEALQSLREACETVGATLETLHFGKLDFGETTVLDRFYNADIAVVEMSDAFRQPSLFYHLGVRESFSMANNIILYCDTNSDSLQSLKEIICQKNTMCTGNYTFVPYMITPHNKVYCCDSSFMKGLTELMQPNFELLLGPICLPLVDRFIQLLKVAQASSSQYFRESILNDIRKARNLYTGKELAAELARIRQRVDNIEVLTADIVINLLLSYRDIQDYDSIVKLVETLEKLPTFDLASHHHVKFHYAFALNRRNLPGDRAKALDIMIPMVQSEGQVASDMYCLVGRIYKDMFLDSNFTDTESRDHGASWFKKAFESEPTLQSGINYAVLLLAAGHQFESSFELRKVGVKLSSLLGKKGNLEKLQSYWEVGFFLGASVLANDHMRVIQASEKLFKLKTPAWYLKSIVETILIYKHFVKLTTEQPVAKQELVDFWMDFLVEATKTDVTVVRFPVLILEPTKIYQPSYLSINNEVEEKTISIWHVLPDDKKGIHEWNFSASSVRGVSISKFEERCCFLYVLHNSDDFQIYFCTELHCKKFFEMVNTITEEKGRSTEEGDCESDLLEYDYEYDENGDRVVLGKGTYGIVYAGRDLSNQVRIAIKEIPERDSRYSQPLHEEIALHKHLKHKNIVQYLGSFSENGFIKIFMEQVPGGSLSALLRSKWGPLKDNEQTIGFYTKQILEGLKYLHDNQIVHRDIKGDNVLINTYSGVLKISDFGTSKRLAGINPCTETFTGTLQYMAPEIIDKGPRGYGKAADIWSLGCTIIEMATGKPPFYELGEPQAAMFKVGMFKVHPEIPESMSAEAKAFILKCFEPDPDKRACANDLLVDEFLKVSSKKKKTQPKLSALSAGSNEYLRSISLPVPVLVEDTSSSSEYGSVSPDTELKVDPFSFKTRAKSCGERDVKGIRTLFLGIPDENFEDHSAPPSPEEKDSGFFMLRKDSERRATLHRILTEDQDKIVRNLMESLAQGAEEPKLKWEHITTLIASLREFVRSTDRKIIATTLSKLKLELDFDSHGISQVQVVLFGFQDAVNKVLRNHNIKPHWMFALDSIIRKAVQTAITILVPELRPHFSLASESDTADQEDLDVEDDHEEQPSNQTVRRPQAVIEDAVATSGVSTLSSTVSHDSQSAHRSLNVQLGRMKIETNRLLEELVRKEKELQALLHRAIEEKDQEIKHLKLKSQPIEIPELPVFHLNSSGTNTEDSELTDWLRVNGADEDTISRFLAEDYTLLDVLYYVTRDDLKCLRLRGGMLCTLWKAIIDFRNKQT", "from_the_text": "as §1, §2"}, "MSK1": {"molecular_target": "MSK1 (Homo sapiens, UniProt O75582)", "from_the_text": "as §1, §2"}, "MLK1": {"molecular_target": "MLK1 (Homo sapiens, UniProt P80192)", "from_the_text": "as §1, §2"}, "TAO1": {"molecular_target": "TAO1 (Homo sapiens, UniProt Q7L7X3)", "from_the_text": "as §1, §2"}, "PAK5": {"molecular_target": "PAK5 (Homo sapiens, UniProt Q9P286)", "from_the_text": "as §1, §2"}, "TSSK1": {"molecular_target": "TSSK1 (Homo sapiens, UniProt Q9BXA7)", "from_the_text": "as §1, §2"}, "PAK6": {"molecular_target": "PAK6 (Homo sapiens, UniProt Q9NQU5)", "from_the_text": "as §1, §2"}, "PKBa": {"molecular_target": "PKBa (Homo sapiens, UniProt P31749)", "from_the_text": "as §1, §2"}, "JNK1": {"molecular_target": "JNK1 (Homo sapiens, UniProt P45983)", "from_the_text": "as §1, §2"}, "Aurora B": {"molecular_target": "Aurora B (Homo sapiens, UniProt Q96GD4)", "from_the_text": "as §1, §2"}, "STK33": {"molecular_target": "STK33 (Homo sapiens, UniProt Q9BYT3)", "from_the_text": "as §1, §2"}, "VEG-FR": {"molecular_target": "VEG-FR (Homo sapiens, UniProt P17948)", "sequence (P17948 27-1338)": "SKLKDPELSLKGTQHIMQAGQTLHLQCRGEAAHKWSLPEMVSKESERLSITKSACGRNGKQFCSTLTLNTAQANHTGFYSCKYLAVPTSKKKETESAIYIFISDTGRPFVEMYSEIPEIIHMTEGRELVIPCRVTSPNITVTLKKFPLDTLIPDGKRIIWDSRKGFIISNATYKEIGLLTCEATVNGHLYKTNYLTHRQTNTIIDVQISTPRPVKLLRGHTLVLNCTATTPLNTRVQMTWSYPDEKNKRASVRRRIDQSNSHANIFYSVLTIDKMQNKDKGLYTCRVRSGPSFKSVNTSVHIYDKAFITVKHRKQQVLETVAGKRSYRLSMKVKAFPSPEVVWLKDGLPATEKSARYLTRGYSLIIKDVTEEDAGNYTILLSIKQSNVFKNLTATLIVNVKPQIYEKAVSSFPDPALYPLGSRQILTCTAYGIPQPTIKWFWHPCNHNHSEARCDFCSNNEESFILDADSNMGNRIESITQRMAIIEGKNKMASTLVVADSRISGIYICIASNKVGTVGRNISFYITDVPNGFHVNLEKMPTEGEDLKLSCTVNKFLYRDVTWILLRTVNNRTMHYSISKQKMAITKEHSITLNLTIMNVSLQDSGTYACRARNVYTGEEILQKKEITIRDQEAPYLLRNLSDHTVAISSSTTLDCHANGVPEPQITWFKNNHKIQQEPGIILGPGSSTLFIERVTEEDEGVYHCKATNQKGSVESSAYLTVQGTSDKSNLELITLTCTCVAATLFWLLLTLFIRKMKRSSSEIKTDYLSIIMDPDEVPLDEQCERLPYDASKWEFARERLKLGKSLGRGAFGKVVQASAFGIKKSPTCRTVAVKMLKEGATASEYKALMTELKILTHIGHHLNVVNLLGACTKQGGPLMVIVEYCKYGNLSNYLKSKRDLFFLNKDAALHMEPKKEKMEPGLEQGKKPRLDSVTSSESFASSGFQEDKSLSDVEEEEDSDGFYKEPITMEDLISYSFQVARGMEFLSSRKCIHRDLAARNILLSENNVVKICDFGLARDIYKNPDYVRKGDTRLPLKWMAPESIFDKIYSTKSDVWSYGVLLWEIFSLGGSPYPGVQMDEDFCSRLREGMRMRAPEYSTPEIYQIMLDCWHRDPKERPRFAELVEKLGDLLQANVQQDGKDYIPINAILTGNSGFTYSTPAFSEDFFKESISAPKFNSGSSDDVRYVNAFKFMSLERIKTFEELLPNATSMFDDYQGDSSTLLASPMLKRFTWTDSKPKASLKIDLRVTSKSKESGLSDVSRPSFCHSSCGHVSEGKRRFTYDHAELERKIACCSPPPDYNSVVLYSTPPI", "from_the_text": "as §1, §2"}, "ULK2": {"molecular_target": "ULK2 (Homo sapiens, UniProt Q8IYT8)", "from_the_text": "as §1, §2"}}}
{"smiles": "CCN(CC)Cc1ccc(OC)c(-c2cc3c(-c4ccc(C(=O)O)c(C(C)C)c4)ccnc3[nH]2)c1", "note": "[analogue 1, 4-(2-(5-((Diethylamino)methyl)-2-methoxyphenyl)-1H-pyrrolo[2,3-b]pyridin-4-yl)-2-isopropylbenzoic Acid]", "values": [{"measurement": "activity at 1 µM", "setting": "MKK6", "result": 100, "unit": "%"}, {"measurement": "activity at 1 µM", "setting": "CK1γ2", "result": 93, "unit": "%"}, {"measurement": "activity at 1 µM", "setting": "TIE2", "result": 120, "unit": "%"}, {"measurement": "activity at 1 µM", "setting": "PKA", "result": 103, "unit": "%"}, {"measurement": "activity at 1 µM", "setting": "PAK2", "result": 84, "unit": "%"}, {"measurement": "activity at 1 µM", "setting": "MELK", "result": 85, "unit": "%"}, {"measurement": "activity at 1 µM", "setting": "MARK1", "result": 52, "unit": "%"}, {"measurement": "activity at 1 µM", "setting": "DDR2", "result": 21, "unit": "%"}, {"measurement": "activity at 1 µM", "setting": "MKK1", "result": 79, "unit": "%"}, {"measurement": "activity at 1 µM", "setting": "MLK3", "result": 107, "unit": "%"}, {"measurement": "activity at 1 µM", "setting": "PIM2", "result": 93, "unit": "%"}, {"measurement": "activity at 1 µM", "setting": "PAK4", "result": 105, "unit": "%"}, {"measurement": "activity at 1 µM", "setting": "EIF2AK3", "result": 100, "unit": "%"}, {"measurement": "activity at 1 µM", "setting": "EPH-A4", "result": 83, "unit": "%"}, {"measurement": "activity at 1 µM", "setting": "MKK2", "result": 17, "unit": "%"}, {"measurement": "activity at 1 µM", "setting": "MAPKAP-K3", "result": 110, "unit": "%"}, {"measurement": "activity at 1 µM", "setting": "RIPK2", "result": 16, "unit": "%"}, {"measurement": "activity at 1 µM", "setting": "MINK1", "result": 44, "unit": "%"}, {"measurement": "activity at 1 µM", "setting": "p38g MAPK", "result": 105, "unit": "%"}, {"measurement": "activity at 1 µM", "setting": "BRSK1", "result": 66, "unit": "%"}, {"measurement": "activity at 1 µM", "setting": "EPH-B4", "result": 82, "unit": "%"}, {"measurement": "activity at 1 µM", "setting": "TBK1", "result": 66, "unit": "%"}, {"measurement": "activity at 1 µM", "setting": "PKCa", "result": 64, "unit": "%"}, {"measurement": "activity at 1 µM", "setting": "IRR", "result": 101, "unit": "%"}, {"measurement": "activity at 1 µM", "setting": "PKBb", "result": 96, "unit": "%"}, {"measurement": "activity at 1 µM", "setting": "BRSK2", "result": 74, "unit": "%"}, {"measurement": "activity at 1 µM", "setting": "CSK", "result": 74, "unit": "%"}, {"measurement": "activity at 1 µM", "setting": "MAP4K3", "result": 1, "unit": "%"}, {"measurement": "activity at 1 µM", "setting": "p38d MAPK", "result": 117, "unit": "%"}, {"measurement": "activity at 1 µM", "setting": "CAMK1", "result": 86, "unit": "%"}, {"measurement": "activity at 1 µM", "setting": "HIPK2", "result": 56, "unit": "%"}, {"measurement": "activity at 1 µM", "setting": "MARK4", "result": 59, "unit": "%"}, {"measurement": "activity at 1 µM", "setting": "PDK1", "result": 111, "unit": "%"}, {"measurement": "activity at 1 µM", "setting": "ASK1", "result": 91, "unit": "%"}, {"measurement": "activity at 1 µM", "setting": "MSK1", "result": 99, "unit": "%"}, {"measurement": "activity at 1 µM", "setting": "MLK1", "result": 111, "unit": "%"}, {"measurement": "activity at 1 µM", "setting": "TAO1", "result": 39, "unit": "%"}, {"measurement": "activity at 1 µM", "setting": "PAK5", "result": 75, "unit": "%"}, {"measurement": "activity at 1 µM", "setting": "TSSK1", "result": 55, "unit": "%"}, {"measurement": "activity at 1 µM", "setting": "PAK6", "result": 92, "unit": "%"}, {"measurement": "activity at 1 µM", "setting": "PKBa", "result": 115, "unit": "%"}, {"measurement": "activity at 1 µM", "setting": "JNK1", "result": 85, "unit": "%"}, {"measurement": "activity at 1 µM", "setting": "Aurora B", "result": 59, "unit": "%"}, {"measurement": "activity at 1 µM", "setting": "STK33", "result": 44, "unit": "%"}, {"measurement": "activity at 1 µM", "setting": "VEG-FR", "result": 80, "unit": "%"}, {"measurement": "activity at 1 µM", "setting": "ULK2", "result": 96, "unit": "%"}]}
